We go through 20 compounds from patent US20250171437A1 (Agios Pharmaceuticals,Inc., priority 2022, published 2025).

The assay deals with T1, human PAH with the R408W mutation (A375 R408W cells) (Homo sapiens, UniProt P00439, R408W).
T1 construct: expressed in transfected cells
T1 sequence (P00439 1-452 R408W): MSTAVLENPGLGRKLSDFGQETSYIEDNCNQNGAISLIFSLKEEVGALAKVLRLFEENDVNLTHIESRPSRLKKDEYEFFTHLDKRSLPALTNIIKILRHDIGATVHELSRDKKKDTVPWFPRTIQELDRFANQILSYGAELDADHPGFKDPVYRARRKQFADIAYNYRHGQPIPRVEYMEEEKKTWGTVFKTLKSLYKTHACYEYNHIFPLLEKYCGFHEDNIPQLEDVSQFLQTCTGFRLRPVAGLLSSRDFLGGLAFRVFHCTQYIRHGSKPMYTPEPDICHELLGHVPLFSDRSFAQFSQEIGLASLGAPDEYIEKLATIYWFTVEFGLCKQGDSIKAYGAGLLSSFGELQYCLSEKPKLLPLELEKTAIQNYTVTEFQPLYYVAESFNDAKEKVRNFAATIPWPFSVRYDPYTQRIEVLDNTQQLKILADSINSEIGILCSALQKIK
The assay can be described thus: Cell Based Phenylalanine Flux Assay. Particulars: A375 R408W cells; 24 hrs with compound, then 20 μM sepiapterin and 800 μM 13C9,15N-Phenylalanine for 4 hours; 13C-Tyrosine by LC-MS; average where tested multiple times. In outline:
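Stable R408W PAH A375 cells: 24 h compound pretreatment in duplicate, then 4 h with 800 μM isotope-labelled Phe and 20 μM sepiapterin. Labelled Tyr output by LC-MS; AC50 averaged where repeated.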
Regarding `O=C(c1nnc(-c2ccc(F)cc2F)o1)N1CCc2[nH]cnc2[C@@H]1c1nc2cc(F)ccc2o1` [Example 83, (R)-(5-(2,4-difluorophenyl)-1,3,4-oxadiazol-2-yl)(4-(5-fluorobenzo[d]oxazol-2-yl)-6,7-dihydro-1H-imidazo[4,5-c]pyridin-5(4H)-yl)methanone], the AC50 – broadly, the concentration giving half of the maximal activity seen – lay in the range of 1000 to 5000 nM. Turning to `O=C(c1nnc(-c2ccc(F)cc2F)o1)N1CCc2[nH]cnc2[C@H]1c1nc2cc(F)ccc2o1` [Example 84, (S)-(5-(2,4-difluorophenyl)-1,3,4-oxadiazol-2-yl)(4-(5-fluorobenzo[d]oxazol-2-yl)-6,7-dihydro-1H-imidazo[4,5-c]pyridin-5(4H)-yl)methanone], the concentration at half-maximal activity (AC50) is at most 500 nM. The figure for `O=C(c1oc(-c2ccccn2)nc1C(F)F)N1CCc2[nH]cnc2[C@H]1c1nc2cc(F)ccc2o1` [Example 85, (S)-(4-(difluoromethyl)-2-(pyridin-2-yl)oxazol-5-yl)(4-(5-fluorobenzo[d]oxazol-2-yl)-6,7-dihydro-1H-imidazo[4,5-c]pyridin-5(4H)-yl)methanone] is at most 500 nM; for `O=C(c1oc(-c2ccccn2)nc1C(F)F)N1CCc2[nH]cnc2[C@@H]1c1nc2cc(F)ccc2o1` [Example 86, (R)-(4-(difluoromethyl)-2-(pyridin-2-yl)oxazol-5-yl)(4-(5-fluorobenzo[d]oxazol-2-yl)-6,7-dihydro-1H-imidazo[4,5-c]pyridin-5(4H)-yl)methanone] it is 1000 to 5000 nM. The figure for `Cn1cc(-c2nc(C(F)F)c(C(=O)N3CCc4[nH]cnc4[C@@H]3c3nc4cc(F)ccc4o3)o2)cn1` [Example 87, (R)-(4-(difluoromethyl)-2-(1-methyl-1H-pyrazol-4-yl)oxazol-5-yl)(4-(5-fluorobenzo[d]oxazol-2-yl)-6,7-dihydro-1H-imidazo[4,5-c]pyridin-5(4H)-yl)methanone] is 1000 to 5000 nM; for `Cn1cc(-c2nc(C(F)F)c(C(=O)N3CCc4[nH]cnc4[C@H]3c3nc4cc(F)ccc4o3)o2)cn1` [Example 88, (S)-(4-(difluoromethyl)-2-(1-methyl-1H-pyrazol-4-yl)oxazol-5-yl)(4-(5-fluorobenzo[d]oxazol-2-yl)-6,7-dihydro-1H-imidazo[4,5-c]pyridin-5(4H)-yl)methanone] it is 500 to 1000 nM; for `O=C(c1nnc(-c2ccc(C(F)(F)F)cc2)o1)N1CCc2[nH]cnc2[C@@H]1c1nc2cc(F)ccc2o1` [Example 89, (R)-(4-(5-fluorobenzo[d]oxazol-2-yl)-6,7-dihydro-1H-imidazo[4,5-c]pyridin-5(4H)-yl)(5-(4-(trifluoromethyl)phenyl)-1,3,4-oxadiazol-2-yl)methanone] it is 1000 to 5000 nM. The figure for `O=C(c1nnc(-c2ccc(C(F)(F)F)cc2)o1)N1CCc2[nH]cnc2[C@H]1c1nc2cc(F)ccc2o1` [Example 90, (S)-(4-(5-fluorobenzo[d]oxazol-2-yl)-6,7-dihydro-1H-imidazo[4,5-c]pyridin-5(4H)-yl)(5-(4-(trifluoromethyl)phenyl)-1,3,4-oxadiazol-2-yl)methanone] is 500 to 1000 nM; for `CN(C)c1ccc2c(C(=O)N3CCc4[nH]cnc4[C@H]3c3nc4cc(F)ccc4o3)cnn2c1` [Example 91, (S)-(6-(dimethylamino)pyrazolo[1,5-a]pyridin-3-yl)(4-(5-fluorobenzo[d]oxazol-2-yl)-6,7-dihydro-1H-imidazo[4,5-c]pyridin-5(4H)-yl)methanone] it is 500 to 1000 nM. For `CN(C)c1ccc2c(C(=O)N3CCc4[nH]cnc4[C@@H]3c3nc4cc(F)ccc4o3)cnn2c1` [Example 92, (R)-(6-(dimethylamino)pyrazolo[1,5-a]pyridin-3-yl)(4-(5-fluorobenzo[d]oxazol-2-yl)-6,7-dihydro-1H-imidazo[4,5-c]pyridin-5(4H)-yl)methanone], the half-maximal activity concentration (AC50) is at least 5000 nM. Turning to `O=C(c1ccnn1C(F)F)N1CCc2[nH]cnc2[C@H]1c1nc2cc(F)ccc2o1` [Example 93, (S)-(1-(difluoromethyl)-1H-pyrazol-5-yl)(4-(5-fluorobenzo[d]oxazol-2-yl)-6,7-dihydro-1H-imidazo[4,5-c]pyridin-5(4H)-yl)methanone], the AC50 was in the range of 500 to 1000 nM.

Turning to `O=C(c1ccnn1C(F)F)N1CCc2[nH]cnc2[C@@H]1c1nc2cc(F)ccc2o1` [Example 94, (R)-(1-(difluoromethyl)-1H-pyrazol-5-yl)(4-(5-fluorobenzo[d]oxazol-2-yl)-6,7-dihydro-1H-imidazo[4,5-c]pyridin-5(4H)-yl)methanone], the half-maximal activity concentration (AC50) was 1000 to 5000 nM. To `Cn1cc(C(=O)N2CCc3[nH]cnc3[C@H]2c2nc3cc(F)ccc3o2)c(C(F)F)n1` [Example 95, (S)-(3-(difluoromethyl)-1-methyl-1H-pyrazol-4-yl)(4-(5-fluorobenzo[d]oxazol-2-yl)-6,7-dihydro-1H-imidazo[4,5-c]pyridin-5(4H)-yl)methanone] belongs 500 to 1000 nM. Consider `Cn1cc(C(=O)N2CCc3[nH]cnc3[C@@H]2c2nc3cc(F)ccc3o2)c(C(F)F)n1` [Example 96, (R)-(3-(difluoromethyl)-1-methyl-1H-pyrazol-4-yl)(4-(5-fluorobenzo[d]oxazol-2-yl)-6,7-dihydro-1H-imidazo[4,5-c]pyridin-5(4H)-yl)methanone], for which the AC50 fell in the range of 1000 to 5000 nM. The figure for `Cc1ccc2oc([C@@H]3c4nc[nH]c4CCN3C(=O)c3nnc(-c4ccccn4)o3)nc2c1` [Example 97, (S)-(4-(5-methylbenzo[d]oxazol-2-yl)-6,7-dihydro-1H-imidazo[4,5-c]pyridin-5(4H)-yl)(5-(pyridin-2-yl)-1,3,4-oxadiazol-2-yl)methanone] is at most 500 nM; for `Cc1ccc2oc([C@H]3c4nc[nH]c4CCN3C(=O)c3nnc(-c4ccccn4)o3)nc2c1` [Example 98, (R)-(4-(5-methylbenzo[d]oxazol-2-yl)-6,7-dihydro-1H-imidazo[4,5-c]pyridin-5(4H)-yl)(5-(pyridin-2-yl)-1,3,4-oxadiazol-2-yl)methanone] it is 1000 to 5000 nM.

For the compound `Cc1ccc2oc([C@@H]3c4nc[nH]c4CCN3C(=O)c3nnc(-c4ccc(F)cn4)o3)nc2c1` [Example 99, (S)-(5-(5-fluoropyridin-2-yl)-1,3,4-oxadiazol-2-yl)(4-(5-methylbenzo[d]oxazol-2-yl)-6,7-dihydro-1H-imidazo[4,5-c]pyridin-5(4H)-yl)methanone], the AC50 was in the range of 500 to 1000 nM.

Consider `Cc1ccc2oc([C@H]3c4nc[nH]c4CCN3C(=O)c3nnc(-c4ccc(F)cn4)o3)nc2c1` [Example 100, (R)-(5-(5-fluoropyridin-2-yl)-1,3,4-oxadiazol-2-yl)(4-(5-methylbenzo[d]oxazol-2-yl)-6,7-dihydro-1H-imidazo[4,5-c]pyridin-5(4H)-yl)methanone], for which the half-maximal activity concentration (AC50) lay within 1000 to 5000 nM.

For `Cc1ccc2nc([C@@H]3c4nc[nH]c4CCN3C(=O)c3nnc(-c4ccccn4)o3)oc2c1` [Example 101, (S)-(4-(6-methylbenzo[d]oxazol-2-yl)-6,7-dihydro-1H-imidazo[4,5-c]pyridin-5(4H)-yl)(5-(pyridin-2-yl)-1,3,4-oxadiazol-2-yl)methanone], the concentration at half-maximal activity (AC50) was in the range of 500 to 1000 nM. To `Cc1ccc2nc([C@H]3c4nc[nH]c4CCN3C(=O)c3nnc(-c4ccccn4)o3)oc2c1` [Example 102, (R)-(4-(6-methylbenzo[d]oxazol-2-yl)-6,7-dihydro-1H-imidazo[4,5-c]pyridin-5(4H)-yl)(5-(pyridin-2-yl)-1,3,4-oxadiazol-2-yl)methanone] belongs 1000 to 5000 nM.
